According to BindingDB's records for doi:10.1021/jm3017656 (Vanderbilt University School of Medicine, 2013):

These compounds were tested against T1, Androgen receptor (Homo sapiens, UniProt P10275) (assay: Agonist activity at androgen receptor (unknown origin) expressed in HeLa cells co-expressing PSA-(ARE)4-Luc13 assessed as induction of DHT-induced luciferase activity after […] by luciferase reporter gene assay).
T1 sequence (P10275 whole entry): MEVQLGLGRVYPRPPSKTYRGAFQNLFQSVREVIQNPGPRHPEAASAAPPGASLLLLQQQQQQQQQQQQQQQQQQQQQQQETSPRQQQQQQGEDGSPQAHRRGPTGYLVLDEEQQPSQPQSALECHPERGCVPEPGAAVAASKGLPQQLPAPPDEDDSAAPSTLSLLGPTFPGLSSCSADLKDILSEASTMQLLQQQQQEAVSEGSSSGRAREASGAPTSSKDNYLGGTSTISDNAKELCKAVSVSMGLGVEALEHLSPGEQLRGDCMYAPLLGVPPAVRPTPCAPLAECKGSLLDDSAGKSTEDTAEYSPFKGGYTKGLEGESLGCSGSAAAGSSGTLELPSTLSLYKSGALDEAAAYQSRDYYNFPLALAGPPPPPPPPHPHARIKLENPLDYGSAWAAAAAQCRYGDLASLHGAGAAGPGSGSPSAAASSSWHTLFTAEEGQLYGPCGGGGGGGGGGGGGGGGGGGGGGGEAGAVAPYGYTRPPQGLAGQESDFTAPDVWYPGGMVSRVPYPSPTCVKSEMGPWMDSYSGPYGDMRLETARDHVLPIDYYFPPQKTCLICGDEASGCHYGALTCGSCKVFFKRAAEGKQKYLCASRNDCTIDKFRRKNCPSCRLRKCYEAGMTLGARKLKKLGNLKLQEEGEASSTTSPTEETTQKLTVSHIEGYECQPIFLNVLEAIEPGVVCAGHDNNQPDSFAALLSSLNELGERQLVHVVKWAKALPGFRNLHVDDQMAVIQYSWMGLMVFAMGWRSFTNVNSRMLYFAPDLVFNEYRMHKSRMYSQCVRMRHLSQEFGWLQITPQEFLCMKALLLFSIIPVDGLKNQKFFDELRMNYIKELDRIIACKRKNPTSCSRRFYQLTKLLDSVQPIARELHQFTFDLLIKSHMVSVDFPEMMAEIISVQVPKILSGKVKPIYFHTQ

Row | SMILES | EC50 [nM]
1 | COc1ccc2c(c1)c(C)c(CCC(=O)NS(C)(=O)=O)n2C(=O)c1ccc(Cl)cc1 | 0.14
2 | COc1ccc2c(c1)c(C)c(CCC(=O)O)n2C(=O)c1ccc(Cl)cc1 | 0.15
3 | COc1ccc2c(c1)c(CC(=O)NS(=O)(=O)C(F)(F)F)cn2C(=O)c1ccc(Cl)cc1 | 0.1
4 | COc1ccc2c(c1)c(CC(=O)O)c(C)n2C(=O)c1ccc(Cl)cc1 [indometacin] | 0.14
